In patent US10131663B2, “Chemical compounds” (AstraZeneca AB, priority 2016, dated 2018):
Values after ≈ are worked out from the molar mass of the structure shown.

Key:
[1] = molecular target: hERG potassium channel (Homo sapiens (Human), UniProt Q12809); test: hERG binding assay (automated patch clamp, CHO cells); type: cell-based; settings: CHO cell line, Nanion Syncropatch 384PE
Method: Reagent preparations include: • 1.
Cell preparations: • 1. If using cell culture; cells to be incubated at 30° C. for approximately 4-6 days prior to being used. Day of assay lift cells using accutase and re-suspend in 20 ml cell buffer to a density of 0.8 to 1e6 cells/ml. • 2. If using assay ready cryovials; rapidly thaw two cryovials at 37° C. and slowly pipette into 23 ml external solution • 3.
All compounds were acoustically dispensed in quadruplicate using a Labcyte Echo. […] Fill 384 well medium resistance 4 hole chips with 40 μl external buffer and perfuse internal buffer to the underside of plate. • 2. Dispense 20 μl of cells into each well of the chip followed by 20 μl of seal enhancer. • 3. Remove 40 μl of reagent from each well to the wash station, leaving a residual volume of 40 μl • 4. Dispense 40 μl of reference buffer with a removal step of 40 μl after 3 min, repeat this step. • 5.
hERG-mediated currents were elicited using a voltage step protocol consisting of acontinuous holding voltage of −80 mV, with a 500 ms step to 60 mV followed by a 500 ms step to −40 mV every 15 seconds. hERG current magnitude was measured automatically from the leak-subtracted traces by the Nanion software by taking the peak of the hERG “tail” current at −40 mV every 15 seconds and taking the last three of these responses for each concentration to generate the concentration-effect curve.
Calculation of results is performed using APC package within Genedata. For the routine normalization of well data with Neutral and Inhibitor control well groups as reference, GeneData Assay Analyzer uses the following equation to normalize the signal values to the desired signal range:
[formula] • x is the measured raw signal value of a well • is the median of the measured signal values for the Central Reference (Neutral) wells on a plate • is the median of the measured signal values for the Scale Reference (Inhibitor) wells on a plate • CR is the desired median normalized value for the Central Reference (Neutral) • SR is the desired median normalized value for the Scale Reference (Inhibitor)

[2] = Thermodynamic solubility (shake-flask); type: physicochemical; settings: aqueous phosphate buffer, 25 °C, pH 7.4, aqueous buffer, thermodynamic from solid, aqueous phosphate buffer pH 7.4, 24 hours
Method: The thermodynamic solubility of a research compound is measured under standard conditions. It is a shake-flask approach that uses 10 mM DMSO solutions which are supplied from the Compound Managements liquid store and is a high throughput method. The dried compounds are equilibrated in an aqueous phosphate buffer (pH 7.4) for 24 hours at 25° C., the portion with the dissolved compound is then separated from the remains. The solutions are analyzed and quantified using UPLC/MS/MS, QC-samples are incorporated in each assay-run to ensure the quality of the assay.

[3] = molecular target: Estrogen Receptor (ERα) in MCF-7 cells (Homo sapiens (Human), UniProt P03372); test: MCF-7 ER down-regulation assay (immuno-fluorescence); type: cell-based
Chain of Estrogen Receptor (ERα) in MCF-7 cells (P03372 whole entry): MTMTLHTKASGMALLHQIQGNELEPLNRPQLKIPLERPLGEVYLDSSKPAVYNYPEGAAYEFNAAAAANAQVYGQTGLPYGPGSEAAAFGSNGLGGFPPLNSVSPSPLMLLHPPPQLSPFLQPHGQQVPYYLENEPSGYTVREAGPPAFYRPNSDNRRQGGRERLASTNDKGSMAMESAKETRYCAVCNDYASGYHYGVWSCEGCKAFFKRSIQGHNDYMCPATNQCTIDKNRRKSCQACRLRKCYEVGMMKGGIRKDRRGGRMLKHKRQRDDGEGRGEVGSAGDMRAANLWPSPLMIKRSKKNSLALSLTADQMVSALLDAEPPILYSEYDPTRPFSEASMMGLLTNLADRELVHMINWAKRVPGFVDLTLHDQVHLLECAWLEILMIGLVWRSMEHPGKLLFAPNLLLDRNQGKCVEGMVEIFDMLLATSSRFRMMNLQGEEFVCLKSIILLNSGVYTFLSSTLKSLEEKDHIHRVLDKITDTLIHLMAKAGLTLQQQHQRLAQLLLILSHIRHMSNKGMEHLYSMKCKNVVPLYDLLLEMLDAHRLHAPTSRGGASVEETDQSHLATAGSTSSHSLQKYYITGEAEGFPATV
Method: The Echo uses acoustic technology to perform direct microplate-to-microplate transfers of DMSO compound solutions to assay plates. […] Cells were fixed at room temperature for 20 mins before being washed two times with 250 μL PBS/Proclin (PBS with a Biocide preservative) using a BioTek platewasher, 40 μL of PBS/Proclin was then added to all wells and the plates stored at 4° C. The fixing method described above was carried out on the Integrated Echo 2 workcell. Immunostaining was performed using an automated AutoElisa workcell. […] The plates were incubated overnight at 4° C. […] The mean total intensity was normalized for cell number giving the total intensity per cell. The data was exported into a suitable software package (such as Origin) to perform curve fitting analysis.

[4] = log D (shake flask, 1-octanol/aqueous buffer); type: physicochemical
Excerpt: The lipophilicity of a drug is an important physical property which may influence many biological and metabolic properties of a compound, for example the absorption, distribution, metabolism, excretion and toxicity profiles of a compound. The distribution coefficient between 1-octanol and aqueous buffer, Log DO/W, at pH 7.4, is the most commonly used measurement of the lipophilicity of a compound. The current method for measurement of Log DO/W is based on the traditional shake flask technique, but with the modification of measuring compounds in mixtures of ten at a time using UPLC with quantitative mass spectrometry (MS) as a method to measure the relative octanol and aqueous concentrations. […] An additional QC sample Caffeine, with low Log D, are used and randomly placed in all runs. The method has been thoroughly validated against the previous shake flask methodologies.

[5] = molecular target: recombinant human Estrogen Receptor alpha ligand binding domain (ER alpha-LBD (GST)) (Homo sapiens (Human), UniProt P03372); test: ERα binding assay (LanthaScreen TR-FRET competition); settings: TR-FRET, displacement of Fluormone ES2
Chain of recombinant human Estrogen Receptor alpha ligand binding domain (ER alpha-LBD (GST)) (P03372 307-554): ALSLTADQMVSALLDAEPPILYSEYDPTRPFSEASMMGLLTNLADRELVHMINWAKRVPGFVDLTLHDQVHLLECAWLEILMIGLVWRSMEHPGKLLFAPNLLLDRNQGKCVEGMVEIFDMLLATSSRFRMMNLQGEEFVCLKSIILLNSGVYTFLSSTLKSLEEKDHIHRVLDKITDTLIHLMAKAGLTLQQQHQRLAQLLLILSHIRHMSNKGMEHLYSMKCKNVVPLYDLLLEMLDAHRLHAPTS
Method: The ability of compounds to bind to isolated Estrogen Receptor Alpha Ligand binding domain (ER alpha-LBD (GST)) was assessed in competition assays using a LanthaScreen™ Time-Resolved Fluorescence Resonance Energy Transfer (TR-FRET) detection end-point. […] The assay principle is that ER alpha-LBD (GST) is added to a fluorescent ligand to form a receptor/fluorophore complex. A terbium-labelled anti-GST antibody (Product code PV3551) is used to indirectly label the receptor by binding to its GST tag, and competitive binding is detected by a test compound's ability to displace the fluorescent ligand, resulting in a loss of TR-FRET signal between the Tb-anti-GST antibody and the tracer. The assay was performed as follows with all reagent additions carried out using the Beckman Coulter BioRAPTR FRD microfluidic workstation: • 1. Acoustic dispense 120 nL of the test compound into a black low volume 384 well assay plates. • 2. Prepare 1×ER alpha-LBD/Tb-antiGST Ab in ES2 screening buffer and incubate for 15 minutes. • 3. Dispense 6 μL of the 1×[…]/Tb-anti-GST Ab reagent into each well of the assay plate followed by 6 μL of Fluorophore reagent into each well of the assay plate • 4. Cover the assay plate to protect the reagents from light and evaporation, and incubate at room temperature for 4 hours. • 5.
TR-FRET dose response data obtained with each compound was exported into a suitable software package (such as Origin or Genedata) to perform curve fitting analysis. Competitive ER alpha binding was expressed as an IC50 value.

[6] = Human plasma protein binding (equilibrium dialysis); type: in vitro ADME; settings: dialysis 18 hours
Method: The automated equilibrium dialysis assay in human plasma uses the RED (Rapid Equilibrium Dialysis) Device and sample handling. The assay generally runs over two to three days including delivery of results. After dialysis for 18 hours, plasma and buffer samples are prepared for analysis by liquid chromatography and mass spectrometry. Samples are generally tested in singlicates and quantified by LC/MSMS by using a 7-point calibration curve in plasma. The compounds are pooled together in plasma pools up to 10 compounds. Three reference compounds are used in each run, Propranolol, Metoprolol and Warfarin. Warfarin is used as a control in each pool and Propranolol and Metoprolol are placed randomly in each run. An in-house Excel macro is used for preparation of files for the robot and the mass spectrometer and is also used for the calculations of fraction unbound (fu %) in plasma.

[7] = 1-octanol/aqueous buffer, pH 7.4, pH 7.4, 1-octanol/aqueous buffer
[8] = pH 7.4, 1-octanol/aqueous buffer

Chain of hERG potassium channel (Q12809 whole entry): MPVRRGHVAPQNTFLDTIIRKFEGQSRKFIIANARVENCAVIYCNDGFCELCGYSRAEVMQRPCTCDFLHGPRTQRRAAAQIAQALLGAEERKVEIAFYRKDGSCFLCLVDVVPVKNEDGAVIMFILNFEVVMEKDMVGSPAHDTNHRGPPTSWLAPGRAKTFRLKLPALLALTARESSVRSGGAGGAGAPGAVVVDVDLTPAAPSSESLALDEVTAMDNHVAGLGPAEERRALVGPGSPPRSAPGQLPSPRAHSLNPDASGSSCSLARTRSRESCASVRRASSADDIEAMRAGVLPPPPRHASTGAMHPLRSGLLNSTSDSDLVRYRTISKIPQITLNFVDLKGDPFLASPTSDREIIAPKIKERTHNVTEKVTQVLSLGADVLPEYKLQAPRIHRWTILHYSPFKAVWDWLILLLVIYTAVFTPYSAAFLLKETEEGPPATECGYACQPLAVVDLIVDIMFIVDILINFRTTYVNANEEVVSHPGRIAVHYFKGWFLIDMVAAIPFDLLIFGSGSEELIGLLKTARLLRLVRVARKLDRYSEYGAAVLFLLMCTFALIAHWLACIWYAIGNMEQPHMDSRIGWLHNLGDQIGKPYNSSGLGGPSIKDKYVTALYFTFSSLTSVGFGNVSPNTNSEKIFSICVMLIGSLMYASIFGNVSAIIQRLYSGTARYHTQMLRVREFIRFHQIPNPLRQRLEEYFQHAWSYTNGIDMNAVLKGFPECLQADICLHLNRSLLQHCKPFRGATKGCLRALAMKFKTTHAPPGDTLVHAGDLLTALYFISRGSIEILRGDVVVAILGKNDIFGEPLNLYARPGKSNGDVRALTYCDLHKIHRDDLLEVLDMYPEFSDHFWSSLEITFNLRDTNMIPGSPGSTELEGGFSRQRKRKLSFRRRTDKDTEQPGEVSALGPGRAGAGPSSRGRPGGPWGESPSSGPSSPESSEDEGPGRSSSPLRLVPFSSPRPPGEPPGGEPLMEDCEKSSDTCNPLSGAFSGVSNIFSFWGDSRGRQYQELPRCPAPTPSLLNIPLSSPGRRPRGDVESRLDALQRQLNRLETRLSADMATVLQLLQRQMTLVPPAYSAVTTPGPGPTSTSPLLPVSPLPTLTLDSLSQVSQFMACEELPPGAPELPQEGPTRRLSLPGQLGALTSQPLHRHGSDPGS

## C[C@@H]1Cc2c(ccc3[nH]ncc23)[C@@H](c2cnc(NC3CN(CCCF)C3)cn2)N1CC1(F)CC1 [Example 55, 5-((6S,8R)-7-((1-fluorocyclopropyl)methyl)-8-methyl-6,7,8,9-tetrahydro-3H-pyrazolo[4,3-f]isoquinolin-6-yl)-N-(1-(3-fluoropropyl)azetidin-3-yl)pyrazin-2-amine]
[1]
  IC50: > 40000 nM
[2]
  solubility at 24 h: 987 µM (≈ 461 µg/mL)
[3]
  IC50: 1.1 nM
[4]; [7]
  logD: 2.1
[5]
  IC50: 8.2 nM

## C[C@@H]1Cc2c(ccc3[nH]nc(F)c23)[C@@H](c2ccc(NC3CN(CCCF)C3)c(F)n2)N1CC(F)(F)F [Example 39, 2-fluoro-6-((6S,8R)-1-fluoro-8-methyl-7-(2,2,2-trifluoroethyl)-6,7,8,9-tetrahydro-3H-pyrazolo[4,3-f]isoquinolin-6-yl)-N-(1-(3-fluoropropyl)azetidin-3-yl)pyridin-3-amine]
[1]
  IC50: 14000 nM
[6]
  Human plasma protein binding (% free): 6.8 % free
[2]
  solubility at 24 h: 257 µM (≈ 132 µg/mL)
[3]
  IC50: 0.048 nM
[4]; [8]
  logD: 3.7
[5]
  IC50: 0.94 nM

## COc1cc(NC2CN(CCCF)C2)ccc1[C@]1(C)c2ccc3[nH]ncc3c2C[C@@H](C)N1CC(F)F [Example 45, N-(4-((6S,8R)-7-(2,2-difluoroethyl)-6,8-dimethyl-6,7,8,9-tetrahydro-3H-pyrazolo[4,3-f]isoquinolin-6-yl)-3-methoxyphenyl)-1-(3-fluoropropyl)azetidin-3-amine]
[1]
  IC50: 4200 nM
[6]
  Human plasma protein binding (% free): 6.2 % free
[2]
  solubility at 24 h: 172 µM (≈ 86.3 µg/mL)
[3]
  IC50: 0.3 nM
[4]; [7]
  logD: 3.9
[5]
  IC50: 1.6 nM

## C[C@@H]1Cc2c(ccc3[nH]ncc23)[C@@](C)(c2ccc(NC3CN(CCCF)C3)cn2)N1CC(F)F [Example 44, 6-((6S,8R)-7-(2,2-difluoroethyl)-6,8-dimethyl-6,7,8,9-tetrahydro-3H-pyrazolo[4,3-f]isoquinolin-6-yl)-N-(1-(3-fluoropropyl)azetidin-3-yl)pyridin-3-amine]
[6]
  Human plasma protein binding (% free): 10 % free
[2]
  solubility at 24 h: 998 µM (≈ 472 µg/mL)
[3]
  IC50: 0.91 nM
[4]; [8]
  logD: 3.2
[5]
  IC50: 9.6 nM

## C[C@@H]1Cc2c(ccc3[nH]ncc23)[C@@H](c2cnc(NC3CN(CCCF)C3)cn2)N1CC(F)F [Example 50, 5-((6S,8R)-7-(2,2-difluoroethyl)-8-methyl-6,7,8,9-tetrahydro-3H-pyrazolo[4,3-f]isoquinolin-6-yl)-N-(1-(3-fluoropropyl)azetidin-3-yl)pyrazin-2-amine]
[1]
  IC50: 13000 nM
[2]
  solubility at 24 h: 748 µM (≈ 344 µg/mL)
[3]
  IC50: 0.47 nM
[4]; [7]
  logD: 2.1
[5]
  IC50: 2.7 nM

## C[C@@H]1Cc2c(ccc3[nH]ncc23)[C@@H](c2c(F)cc(NC3CN(CCCF)C3)cc2F)N1CC(C)(F)CO (single isomer, unassigned) [Example 23]
[6]
  Human plasma protein binding (% free): 9.5 % free
[2]
  solubility at 24 h: 339 µM (≈ 176 µg/mL)
[3]; read-out: ER down regulation IC50 value
  DC50: 0.15 nM
[4]; [7]
  logD: 3.1
[5]
  IC50: 15 nM

## C[C@@H]1Cc2c(ccc3[nH]nc(F)c23)[C@@H](c2ccc(NC3CN(CCCF)C3)c(F)n2)N1CC(F)(F)CO [Example 62, 2,2-difluoro-3-((6S,8R)-1-fluoro-6-(6-fluoro-5-((1-(3-fluoropropyl)azetidin-3-yl)amino)pyridin-2-yl)-8-methyl-3,6,8,9-tetrahydro-7H-pyrazolo[4,3-f]isoquinolin-7-yl)propan-1-ol]
[1]
  IC50: > 40000 nM
[6]
  Human plasma protein binding (% free): 19 % free
[2]
  solubility at 24 h: 784 µM (≈ 411 µg/mL)
[3]
  IC50: 0.13 nM
[4]; [7]
  logD: 2.8
[5]
  IC50: 1 nM

## C[C@@H]1Cc2c(ccc3[nH]ncc23)[C@@H](c2ccc(OC3CN(CCCF)C3)cn2)N1CC(F)(F)CO [Example 58, 2,2-difluoro-3-((6S,8R)-6-(5-((1-(3-fluoropropyl)azetidin-3-yl)oxy)pyridin-2-yl)-8-methyl-3,6,8,9-tetrahydro-7H-pyrazolo[4,3-f]isoquinolin-7-yl)propan-1-ol]
[1]
  IC50: > 40000 nM
[2]
  solubility at 24 h: 633 µM (≈ 310 µg/mL)
[3]
  IC50: 0.56 nM
[4]; [7]
  logD: 2.4
[5]
  IC50: 2.1 nM

## COc1cc(OC2CN(CCCF)C2)ccc1[C@@H]1c2ccc3[nH]ncc3c2C[C@@H](C)N1CC(F)F [Example 22, (6S,8R)-7-(2,2-difluoroethyl)-6-(4-((1-(3-fluoropropyl)azetidin-3-yl)oxy)-2-methoxyphenyl)-8-methyl-6,7,8,9-tetrahydro-3H-pyrazolo[4,3-f]isoquinoline]
[6]
  Human plasma protein binding (% free): 4.6 % free
[2]
  solubility at 24 h: 70 µM (≈ 34.2 µg/mL)
[3]
  IC50: 0.062 nM
[4]; [7]
  logD: 4
[5]
  IC50: 5.7 nM

## COc1cc(NC2CN(CCCF)C2)ccc1[C@@H]1c2ccc3[nH]ncc3c2C[C@@H](C)N1CC1(CF)COC1 [Example 10, N-(4-((6S,8R)-7-((3-(fluoromethyl)oxetan-3-yl)methyl)-8-methyl-6,7,8,9-tetrahydro-3H-pyrazolo[4,3-f]isoquinolin-6-yl)-3-methoxyphenyl)-1-(3-fluoropropyl)azetidin-3-amine]
[6]
  Human plasma protein binding (% free): 23 % free
[2]
  solubility at 24 h: 634 µM (≈ 333 µg/mL)
[3]
  IC50: 0.26 nM
[4]; [7]
  logD: 2.8
[5]
  IC50: 8 nM

## C[C@@H]1Cc2c(ccc3[nH]ncc23)[C@@H](c2ccc(N(C)C3CN(CCCF)C3)cn2)N1CC1(F)CC1 [Example 57, 6-((6S,8R)-7-((1-fluorocyclopropyl)methyl)-8-methyl-6,7,8,9-tetrahydro-3H-pyrazolo[4 3-f]isoquinolin-6-yl)-N-(1-(3-fluoropropyl)azetidin-3-yl)-N-methylpyridin-3-amine]
[1]
  IC50: 16000 nM
[2]
  solubility at 24 h: 615 µM (≈ 296 µg/mL)
[3]
  IC50: 0.36 nM
[4]; [7]
  logD: 2.9
[5]
  IC50: 5 nM
